Results on three molecules are retold here after patent publication US20250290117A1, “MOLECULAR PHENOTYPIC ANTIMICROBIAL SUSCEPTIBILITY TESTING” (priority 2024, published 2025).

For test [1], the system named is pathogens of clinical samples. Description: Molecular phenotypic antimicrobial susceptibility test of clinical samples, extraction DNA purification step prior to PCR (Table 6). In kind it is cell-based. In a few lines: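 Breakpoint-concentration antimicrobials in Mueller Hinton Broth; inoculum 0.5 McFarland; 12-16 h incubation. Read-out: semi-quantitative PCR, after magnetic-bead DNA purification or direct PCR following lysis buffer in the thermal cycler.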

For the next test, the system named is E. coli. Description: Molecular phenotypic antimicrobial susceptibility test, specimen with two detected pathogens incubated together without isolation. The class given is cell-based, Escherichia coli. As to conditions: E. coli in specimen with two detected pathogens (E. coli and M. morganii) incubated together; for Ct of Sensitive Breakpoint: Ct of controls (average) 15.93; for Molecular Antimicrobial Susceptibility Result: at sensitive breakpoint. In a few lines:
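Susceptibility read molecularly: growth means resistance, prevented growth sensitivity, versus antibiotic-free control wells. Co-detected pathogens stay together without isolation; after 4-6 h preincubation and PCR identification (threshold >10,000 cells/mL), inoculum adjusted to 0.5 McFarland and placed on thawed plates with each drug at its breakpoint concentration(s).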

Where [2] appears, read: E. coli, clinical sample of r10-r24.
Where [3] appears, read: E. coli, clinical sample of r10-r24, Ct Control Avg 18.112.
The mark [4] stands for this setting: E. coli, clinical sample of r158-r172.
Setting [5] is: E. coli, clinical sample of r158-r172, Ct Control Avg 20.146.
Where [6] appears, read: K. aerogenes, clinical sample of r136-r150.
[7] abbreviates: K. aerogenes, clinical sample of r136-r150, Ct Control Avg 19.994.
The mark [8] stands for this setting: K. pneumoniae, clinical sample of r121-r135.
Setting [9] is: K. pneumoniae, clinical sample of r121-r135, Ct Control Avg 24.272.
Setting [10] is: M. morganii, clinical sample of r55-r69.
Where [11] appears, read: M. morganii, clinical sample of r55-r69, Ct Control Avg 28.86.
The mark [12] stands for this setting: M. morganii, clinical sample of r70-r84.
Where [13] appears, read: M. morganii, clinical sample of r70-r84, Ct Control Avg 27.053.
The mark [14] stands for this setting: P. mirabilis, clinical sample of r25-r39.
[15] abbreviates: P. mirabilis, clinical sample of r25-r39, Ct Control Avg 26.064.
Where [16] appears, read: P. mirabilis, clinical sample of r40-r54.
The mark [17] stands for this setting: P. mirabilis, clinical sample of r40-r54, Ct Control Avg 26.987.

On to `C[C@@H]1O[C@@H]1P(=O)(O)O` [Fosfomycin], for which the “Molecular Antibiotic Susceptibility Result” value is “Sensitive (Antimicrobial wells with pathogen load detected below the control wells (typically >2 cycle thresholds later) may be reported as Sensitive)” in test [1] (setting [2]); “Sensitive (Antimicrobial wells with pathogen load detected below the control wells (typically >2 cycle thresholds later) may be reported as Sensitive)” in test [1] (setting [4]); “Sensitive (Antimicrobial wells with pathogen load detected below the control wells (typically >2 cycle thresholds later) may be reported as Sensitive)” in test [1] (E. faecalis, clinical sample of r93-r99); “sensitive” in test [1] (E. faecalis, clinical sample of r100-r106); “Resistant” in test [1] (E. faecalis, clinical sample of r107-r113); “Sensitive (Antimicrobial wells with pathogen load detected below the control wells (typically >2 cycle thresholds later) may be reported as Sensitive)” in test [1] (E. faecalis, clinical sample of r114-r120). In addition, the “Molecular Antibiotic Susceptibility Result” value in test [1] (E. faecalis, clinical sample of r151-r157) was “Sensitive (Antimicrobial wells with pathogen load detected below the control wells (typically >2 cycle thresholds later) may be reported as Sensitive)”; in test [1] (setting [6]), “Sensitive (Antimicrobial wells with pathogen load detected below the control wells (typically >2 cycle thresholds later) may be reported as Sensitive)”; in test [1] (setting [8]) it was “Resistant”; in test [1] (setting [10]), “Sensitive (Antimicrobial wells with pathogen load detected below the control wells (typically >2 cycle thresholds later) may be reported as Sensitive)”; in test [1] (setting [12]), “Sensitive (Antimicrobial wells with pathogen load detected below the control wells (typically >2 cycle thresholds later) may be reported as Sensitive)”; in test [1] (setting [14]), “Sensitive (Antimicrobial wells with pathogen load detected below the control wells (typically >2 cycle thresholds later) may be reported as Sensitive)”. The “Molecular Antibiotic Susceptibility Result” value in test [1] (setting [16]) was “Sensitive (Antimicrobial wells with pathogen load detected below the control wells (typically >2 cycle thresholds later) may be reported as Sensitive)”. Further, the Ct in test [1] (setting [3]) came out at 28.111; in test [1] (setting [5]) it was 30.261; in test [1] (E. faecalis, clinical sample of r93-r99, Ct Control Avg 22.987), 35.358; in test [1] (E. faecalis, clinical sample of r100-r106, Ct Control Avg 23.073), 36.898; in test [1] (E. faecalis, clinical sample of r107-r113, Ct Control Avg 22.144) it was 20.142; in test [1] (E. faecalis, clinical sample of r114-r120, Ct Control Avg 20.822) it was 30.598. The Ct in test [1] (E. faecalis, clinical sample of r151-r157, Ct Control Avg 20.56) is 37.968; in test [1] (setting [7]), 25.008; in test [1] (setting [9]), 18.711; in test [1] (setting [11]), 31.935; in test [1] (setting [13]), 37.955; in test [1] (setting [15]), 27.051. Also, the Ct in test [1] (setting [17]) was 31.981. Further, the “Ct of Sensitive Breakpoint” value in the test with E. coli turned out to be 29.24. Also, the “Molecular Antimicrobial Susceptibility Result” value with E. coli is listed as “Sensitive (Antimicrobial wells with pathogen load detected below the control wells (typically >2 cycle thresholds later) may be reported as Sensitive)”.

Regarding Trimethoprim/Sulfamethoxazole [TMP/SMX], the “Molecular Antibiotic Susceptibility Result” value in test [1] (setting [2]), in test [1] (setting [4]), in test [1] (setting [6]), in test [1] (setting [8]), in test [1] (setting [10]) and in test [1] (setting [12]) was “Sensitive (Antimicrobial wells with pathogen load detected below the control wells (typically >2 cycle thresholds later) may be reported as Sensitive)” throughout. The “Molecular Antibiotic Susceptibility Result” value in test [1] (setting [14]) is reported as “Sensitive (Antimicrobial wells with pathogen load detected below the control wells (typically >2 cycle thresholds later) may be reported as Sensitive)”; in test [1] (setting [16]), “Sensitive (Antimicrobial wells with pathogen load detected below the control wells (typically >2 cycle thresholds later) may be reported as Sensitive)”; in test [1] (S. aureus, clinical sample of r85-r92), “Sensitive (Antimicrobial wells with pathogen load detected below the control wells (typically >2 cycle thresholds later) may be reported as Sensitive)”. For the same molecule, the Ct is on record as 28.072 in test [1] (setting [3]); 33.402 in test [1] (setting [5]); 36.5 in test [1] (setting [7]); 34.918 in test [1] (setting [9]); “Undet” in test [1] (setting [11]); 30.225 in test [1] (setting [13]). Also, the Ct in test [1] (setting [15]) came out at 30.865; in test [1] (setting [17]), 33.833; in test [1] (S. aureus, clinical sample of r85-r92, Ct Control Avg 24.32), 27.399. Besides, the “Ct of Sensitive Breakpoint” value in the test with E. coli came to 27.67. Further, in the test with E. coli, the “Molecular Antimicrobial Susceptibility Result” value was “Sensitive (Antimicrobial wells with pathogen load detected below the control wells (typically >2 cycle thresholds later) may be reported as Sensitive)”.

In the case of Ampicillin/Sulbactam, the “Molecular Antibiotic Susceptibility Result” value is “Resistant” in test [1] (setting [2]); “Sensitive (Antimicrobial wells with pathogen load detected below the control wells (typically >2 cycle thresholds later) may be reported as Sensitive)” in test [1] (setting [4]); “Sensitive (Antimicrobial wells with pathogen load detected below the control wells (typically >2 cycle thresholds later) may be reported as Sensitive)” in test [1] (setting [6]); “Resistant” in test [1] (setting [8]); “Sensitive (Antimicrobial wells with pathogen load detected below the control wells (typically >2 cycle thresholds later) may be reported as Sensitive)” in test [1] (setting [10]); “Sensitive (Antimicrobial wells with pathogen load detected below the control wells (typically >2 cycle thresholds later) may be reported as Sensitive)” in test [1] (setting [12]). The “Molecular Antibiotic Susceptibility Result” value in test [1] (setting [14]) and in test [1] (setting [16]) was “Sensitive (Antimicrobial wells with pathogen load detected below the control wells (typically >2 cycle thresholds later) may be reported as Sensitive)” throughout. For the same molecule, the Ct in test [1] (setting [3]) was 17.123; in test [1] (setting [5]), 29.662; in test [1] (setting [7]), 31.018; in test [1] (setting [9]), 23.602; in test [1] (setting [11]), 37.093; in test [1] (setting [13]), “Undet”. The figures for the Ct in test [1] (setting [15]) and in test [1] (setting [17]) were 33.809 and 36.062, respectively. Besides, the “Ct of Sensitive Breakpoint” value in the test with E. coli is listed as 14.58. For the same molecule, the “Molecular Antimicrobial Susceptibility Result” value in the test with E. coli was “Resistant”.
